# Reference: PubChem BioAssay (NCI)
#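 The compound was tested at five concentrations on cells cultured in 96-well plates, with a 48-hour exposure period. GI50 = concentration required for 50% inhibition of growth. Definition used: TGI = concentration required for complete inhibition of growth.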
# Legend:
# Test in all cases: inhibition of tumour cell growth, NCI panel, 48 h
# NCI/ADR-RES ovarian = test system: NCI/ADR-RES ovarian
# ACHN renal = test system: ACHN renal
# DU-145 prostate = test system: DU-145 prostate
# BT-549 breast = test system: BT-549 breast
# KM12 colon = test system: KM12 colon
# MALME-3M melanoma = test system: MALME-3M melanoma
# RXF 393 renal = test system: RXF 393 renal
# EKVX NSCLC = test system: EKVX NSCLC
# RPMI-8226 leukemia = test system: RPMI-8226 leukemia
# 786-0 renal = test system: 786-0 renal
SMILES,GI50 (NCI/ADR-RES ovarian),TGI (NCI/ADR-RES ovarian),GI50 (ACHN renal),TGI (ACHN renal),GI50 (DU-145 prostate),TGI (DU-145 prostate),GI50 (BT-549 breast),TGI (BT-549 breast),GI50 (KM12 colon),TGI (KM12 colon),GI50 (MALME-3M melanoma),TGI (MALME-3M melanoma),GI50 (RXF 393 renal),TGI (RXF 393 renal),GI50 (EKVX NSCLC),TGI (EKVX NSCLC),GI50 (RPMI-8226 leukemia),TGI (RPMI-8226 leukemia),GI50 (786-0 renal),TGI (786-0 renal)
O=C1c2cc3c(cc2-c2c1c1cc(Cl)c(Cl)cc1c(=O)n2CCCn1ccnc1)OCO3,< 0.01 µM,11.6 µM,< 0.01 µM,1.09 µM,< 0.01 µM,59.9 µM,0.0114 µM,28.1 µM,0.0244 µM,37.1 µM,0.0232 µM,17 µM,< 0.01 µM,0.0566 µM,0.0553 µM,> 100 µM,< 0.01 µM,10.4 µM,< 0.01 µM,11.4 µM
COc1ccccc1C(=O)/C=C/c1cc2cccc(OC)c2[nH]c1=O,0.0194 µM,13.6 µM,0.0557 µM,2.15 µM,0.0331 µM,0.714 µM,0.112 µM,1.37 µM,< 0.0167 µM,1.13 µM,0.0511 µM,4.6 µM,0.0584 µM,0.991 µM,0.375 µM,3.17 µM,< 0.0181 µM,1.42 µM,0.0401 µM,1.38 µM
Cc1ccc(S(=O)(=O)NC(CCC(=O)Nc2ccc(Cl)cc2)C(=O)Nc2ccc(Cl)cc2)cc1 (configuration not stated),1.03 µM,7.63 µM,0.248 µM,6.57 µM,1.2 µM,9.89 µM,0.967 µM,6.71 µM,0.112 µM,6 µM,1.82 µM,8.27 µM,1.89 µM,7.31 µM,2.01 µM,9.31 µM,0.826 µM,7.43 µM,0.726 µM,5.69 µM
O=S(=O)(c1ccc(NC(=S)N/N=C/c2ccccc2O)cc1)N1CCCCC1,–,0.586 µM,–,10.2 µM,–,> 47.4 µM,–,> 100 µM,–,12.9 µM,–,1.43 µM,–,> 100 µM,–,76.2 µM,–,8.17 µM,–,4.34 µM
O=C(Nc1ccncc1)C(=O)c1cn(S(=O)(=O)c2ccc(Br)cc2)c2ccccc12,2.65 µM,> 100 µM,9.13 µM,> 100 µM,19 µM,> 100 µM,11.8 µM,> 100 µM,3.88 µM,> 100 µM,24.2 µM,> 100 µM,7.28 µM,> 100 µM,3.81 µM,> 100 µM,4.56 µM,> 100 µM,46.3 µM,> 100 µM
N#C/C(=C\c1c(-c2ccccc2)[nH]c2ccccc12)C(=O)c1ccc(Cl)cc1,0.575 µM,12.6 µM,6.69 µM,> 55 µM,3.54 µM,16.7 µM,5.83 µM,79.7 µM,0.735 µM,23.6 µM,3.61 µM,30.2 µM,19.5 µM,> 100 µM,5.51 µM,> 100 µM,1.32 µM,20 µM,5.53 µM,23.5 µM
Cc1cc2c(C)c3cc(C)c(N)cc3nc2cc1N,4.92 µM,25.3 µM,0.422 µM,3.82 µM,0.749 µM,5.3 µM,3.12 µM,11.6 µM,0.745 µM,10.2 µM,1.72 µM,6.31 µM,1.16 µM,4.42 µM,–,–,1.33 µM,5.92 µM,0.929 µM,8.84 µM
O/N=C1\CCc2cc(-c3nc(C4CCNCC4)[nH]c3-c3ccncc3)ccc21,> 25 µM,> 25 µM,> 25 µM,> 25 µM,> 25 µM,> 25 µM,> 25 µM,> 25 µM,> 25 µM,> 25 µM,3.02 µM,12.3 µM,> 25 µM,> 25 µM,> 25 µM,> 25 µM,> 25 µM,> 25 µM,> 25 µM,> 25 µM
O=C(Nc1n[nH]c2nc(-c3ccco3)c(Br)cc12)C1CC1,> 25 µM,> 25 µM,> 25 µM,> 25 µM,> 25 µM,> 25 µM,> 25 µM,> 25 µM,> 25 µM,> 25 µM,> 25 µM,> 25 µM,4.89 µM,> 25 µM,> 25 µM,> 25 µM,> 25 µM,> 25 µM,> 25 µM,> 25 µM
Cc1ccc(S(=O)(=O)N/N=C/C(Br)=C(/Br)C(=O)O)cc1,–,17.9 µM,–,8.75 µM,–,26.9 µM,–,20.7 µM,–,33.1 µM,–,14.3 µM,–,5.17 µM,–,34 µM,–,6.18 µM,–,14.8 µM
O=C1C2CC(Cl)C(SSC3CC4C(=O)N(SC(Cl)(Cl)C(Cl)Cl)C(=O)C4CC3Cl)CC2C(=O)N1SC(Cl)(Cl)C(Cl)Cl (configuration not stated),–,6.05 µM,–,6.66 µM,–,9.44 µM,–,3.41 µM,–,> 51 µM,–,2.86 µM,–,3.17 µM,–,15.5 µM,–,5.35 µM,–,3.65 µM
COC(=O)Nc1nc2ccc(C(=O)c3ccc[nH]3)cc2[nH]1,–,9.01 µM,–,> 100 µM,–,> 23.2 µM,–,> 100 µM,–,> 100 µM,–,> 31.3 µM,–,4.78 µM,–,> 100 µM,–,> 100 µM,–,> 100 µM
COc1cc(O)c(C(=O)/C=C/c2ccccc2)c(OC)c1,–,14.4 µM,–,20.8 µM,–,21 µM,–,16.2 µM,–,13.6 µM,–,18.2 µM,–,32.8 µM,–,22.4 µM,–,10.3 µM,–,21.6 µM
CCCCCCCCCCCCCCCCCCNC(=O)[C@H]1CSC(c2ccc(OC)c(F)c2)N1 (some centres not stated),2.52 µM,6.22 µM,> 36.8 µM,> 52.1 µM,24.2 µM,> 54.6 µM,1.71 µM,4.04 µM,2.34 µM,7.9 µM,> 26.2 µM,> 45.5 µM,2.34 µM,5.5 µM,3.93 µM,17.2 µM,0.435 µM,1.91 µM,7.18 µM,> 46.2 µM
Cc1cc(NC(=O)C2c3ccccc3C(=O)N(CC(C)C)C2c2cccs2)no1 (configuration not stated),90.2 µM,> 100 µM,55.2 µM,> 100 µM,> 100 µM,> 100 µM,> 100 µM,> 100 µM,48.4 µM,> 100 µM,> 100 µM,> 100 µM,27.5 µM,> 100 µM,–,–,45.5 µM,> 100 µM,> 100 µM,> 100 µM
Cn1cc(-c2ccc(=O)n(Cc3cccc(-c4ncc(OCCN5CCOCC5)cn4)c3)n2)cn1,37.5 µM,> 100 µM,> 83.6 µM,> 100 µM,> 100 µM,> 100 µM,32.1 µM,> 100 µM,52.2 µM,> 100 µM,> 54.9 µM,> 100 µM,> 75.4 µM,> 100 µM,–,–,34 µM,> 100 µM,> 100 µM,> 100 µM
O=C1c2ccccc2-c2c1c1ccccc1c(=O)n2CCO,–,> 100 µM,–,10.4 µM,–,> 100 µM,–,> 100 µM,–,> 100 µM,–,> 100 µM,–,> 100 µM,–,> 100 µM,–,> 100 µM,–,> 100 µM
Cc1ccc(-c2c(C#N)c(N)nc(N3CCOCC3)c2C#N)o1,33.6 µM,> 100 µM,–,–,43.5 µM,> 100 µM,62.9 µM,> 100 µM,46.6 µM,> 100 µM,43.4 µM,> 100 µM,40.7 µM,> 100 µM,21.2 µM,> 100 µM,49.8 µM,> 100 µM,19.1 µM,57.9 µM
Nc1cccc2c1C(=O)N(C1CCC(=O)NC1=O)C2=O (configuration not stated),> 100 µM,> 100 µM,> 100 µM,> 100 µM,> 100 µM,> 100 µM,> 100 µM,> 100 µM,> 100 µM,> 100 µM,> 100 µM,> 100 µM,> 100 µM,> 100 µM,> 100 µM,> 100 µM,> 100 µM,> 100 µM,> 100 µM,> 100 µM
CC1(C)CC(=O)C2=C(C1)NC(SSC1=C(C#N)C(c3ccccc3)C3=C(CC(C)(C)CC3=O)N1)=C(C#N)C2c1ccccc1 (configuration not stated),32.9 µg/mL,65.9 µg/mL,26.1 µg/mL,46.8 µg/mL,44.7 µg/mL,126 µg/mL,27.6 µg/mL,48.6 µg/mL,26.2 µg/mL,49.7 µg/mL,27.3 µg/mL,48.6 µg/mL,25.7 µg/mL,47 µg/mL,28.6 µg/mL,56.2 µg/mL,46.5 µg/mL,134 µg/mL,28.4 µg/mL,49.5 µg/mL
O=C1C=C[C@]2(C[C@@H](c3cccc(C(F)(F)F)c3)O[C@@H](c3cccc(C(F)(F)F)c3)O2)O1,1.9 µM,6.62 µM,1.55 µM,3.1 µM,5.72 µM,18.4 µM,1.92 µM,4.82 µM,3.09 µM,13.9 µM,2.27 µM,7.06 µM,1.67 µM,3.91 µM,12.9 µM,27.7 µM,1.12 µM,5.97 µM,1.35 µM,2.95 µM
ClC(=Nc1cccc2ccccc12)N(c1ccccc1)c1ccccc1,–,> 100 µM,–,> 100 µM,–,> 100 µM,–,> 100 µM,–,> 100 µM,–,> 100 µM,–,> 100 µM,–,–,–,89.3 µM,–,> 100 µM
COC(=O)[C@]12CC[C@@H](C)[C@H](C)[C@@H]1C1=CC[C@@H]3[C@@]4(C)CC(=O)[C@H](O)[C@@]5(C)COC(=C45)C[C@@]3(C)[C@]1(C)CC2,18.4 µM,37.6 µM,18.3 µM,33.9 µM,18.7 µM,35.1 µM,17.3 µM,33.5 µM,17.7 µM,33.8 µM,16.2 µM,30.7 µM,15.2 µM,31.4 µM,17.4 µM,34.2 µM,21 µM,45.7 µM,17.8 µM,34.2 µM
Nc1nc(N)[n+]([O-])c(N)c1NCO,–,> 100 µM,–,> 100 µM,–,> 100 µM,–,> 100 µM,–,> 100 µM,–,> 100 µM,–,> 100 µM,–,> 100 µM,–,> 100 µM,–,> 100 µM
O=C(c1cccs1)c1c(C(F)(F)F)n([O-])c2ccc(C(F)(F)F)cc2[n+]1=O,0.219 µM,0.573 µM,0.183 µM,0.326 µM,0.234 µM,0.576 µM,0.178 µM,0.34 µM,0.295 µM,0.774 µM,0.552 µM,1.21 µM,0.195 µM,0.387 µM,0.241 µM,0.529 µM,0.279 µM,1.12 µM,0.188 µM,0.339 µM
COc1ccc(/C(=C/c2cc(OC)c(OC)c(OC)c2)[N+](=O)[O-])cc1,2.47 µM,7.55 µM,1.54 µM,2.88 µM,1.75 µM,3.14 µM,1.7 µM,3.2 µM,1.89 µM,3.99 µM,1.68 µM,3.71 µM,1.73 µM,3.32 µM,1.96 µM,4.32 µM,1.7 µM,4.77 µM,1.66 µM,3.05 µM
CCCCOC(=O)C(=O)C(CC(C(=O)Cc1ccccc1)c1ccccc1)C(=O)C=C(C)C (configuration not stated),–,> 100 µM,–,> 100 µM,–,> 100 µM,–,> 100 µM,–,> 100 µM,–,–,–,> 100 µM,–,> 100 µM,–,–,–,> 100 µM
CC(=O)c1ccc(Nc2cc(-n3ccnc3)nc3ccccc23)cc1,> 100 µM,> 100 µM,48.4 µM,> 100 µM,> 100 µM,> 100 µM,> 100 µM,> 100 µM,–,–,15.4 µM,56.5 µM,26 µM,76.8 µM,> 100 µM,> 100 µM,3.24 µM,9.84 µM,7.86 µM,41.3 µM
